Results from patent US20070026080A1, “Manufacturing process for tigecycline” (Wyeth, priority 2005, published 2007).

Assay: Strength and degradation profile of tigecycline 20 mg/mL bulk solutions by reversed phase HPLC (effect of temperature, time, pH, dissolved oxygen; Runs A to O)
Format: physicochemical
Procedure: The contents of the sample vials are dissolved in diluent. The sample solution is diluted, if necessary, and chromatographed on a reversed phase column using gradient elution. Impurities are determined by comparing the impurity peak areas in the sample preparation chromatogram to the average area of tigecycline peaks in the standard preparation chromatograms obtained concomitantly.
Chromatographic Column—Length about 15 cm, inside diameter about 4.6 mm, packed with Inertsil ODS2, 5 μm size particles or equivalent.
Detector—Ultraviolet spectrophotometric detector capable of operating at 248 nm with a sensitivity of about 0.5 absorbance units full scale.
The results of additional studies to investigate the effect of processing parameters such as temperature, time, and dissolved oxygen content on the purity profile of tigecycline solutions using the following materials, methods and procedures are presented in Tables A to O.
The experiments were run in plastic glove bags under normal laboratory light conditions. Plastic glove boxes will be used to control the headspace of the beakers. The batch size was 200 mL. • 1. Prepare the glove bag with a mixture of nitrogen and air to achieve an oxygen level in the solution as per the design. • 2. Place the jacketed beaker on the magnetic stirrer. Connect it to the cooler. Set the cooler to the desired set point. • 3. Add 200 mL of SWFI in to the beaker. Allow equilibrating. Measure the temperature and oxygen content. When it reaches the desired condition, add accurately weighed API and mix until dissolved. If necessary use spatula to aid dissolution. For pH adjustments, use 4 mL of either 0.1N NaOH or 0.1N HCl and 196 mL of WFI for manufacture. • 4. After complete dissolution, Transfer about 5.5 mL of Solution in vials and stopper them. These vials will be stoppered at the appropriate headspace conditions. Place the vials in appropriate temperature conditions. • 5. Sample the vials at 1, 4, 8, 10, 12 and 24 hours. Send the samples for analysis. Freeze the 10, 12 and 24 samples at −20° C. for analysis the following day. • 6. Measure pH and record color of the solution at each time point. Results
The 1-hour samples were taken directly from the beakers. Samples for later time points were collected in stoppered vials processed in the atmosphere of the bag in order to simulate the headspace conditions then placed in water baths or refrigerator to maintain there respective temperature conditions. This was done to maintain safety in the lab. Disposable plastic glove bags require constant flow of a mixture of nitrogen and air to maintain headspace oxygen level that will result in the desired dissolved oxygen (DO) content in the sample. The pH of samples was measured at each sample points.
Strength and degradation profile was analyzed by HPLC as described above. […] Degradation was slightly higher at higher temperature condition.

[1] = Run #N, 8° C., pH 8.2, Oxygen = 0.1 mg/L, 4 Hrs
[2] = Run #N, 8° C., pH 8.2, Oxygen = 0.1 mg/L, 8 Hrs
[3] = Run #N, 8° C., pH 8.2, Oxygen = 0.1 mg/L, 12 Hrs
[4] = Run #N, 8° C., pH 8.2, Oxygen = 0.1 mg/L, 24 Hrs
[5] = Run #O, 20 mg/mL, 5° C., Oxygen = 0.1 mg/mL, hours 1,4,8,12,24 at r7-r11, time 1 h
[6] = Run #O, 20 mg/mL, 5° C., Oxygen = 0.1 mg/mL, hours 1,4,8,12,24 at r7-r11, time 4 h
[7] = Run #O, 20 mg/mL, 5° C., Oxygen = 0.1 mg/mL, hours 1,4,8,12,24 at r7-r11, time 8 h
[8] = Run #O, 20 mg/mL, 5° C., Oxygen = 0.1 mg/mL, hours 1,4,8,12,24 at r7-r11, time 12 h
[9] = Run #O, 20 mg/mL, 5° C., Oxygen = 0.1 mg/mL, hours 1,4,8,12,24 at r7-r11, time 24 h

CN(C)c1cc(NC(=O)CNC(C)(C)C)c(O)c2c1C[C@H]1C[C@H]3[C@H](N(C)C)C(O)=C(C(N)=O)C(=O)[C@@]3(O)C(O)=C1C2=O [Tigecycline]
RRT 0.78 MW = 557 [1]: BRL (BRL means below reporting limit (meaning less than 0.05% of tigecycline peak))
RRT 1.12 [1]: BRL (BRL means below reporting limit (meaning less than 0.05% of tigecycline peak))
RRT 1.45 [1]: 0.07%
RRT 1.58 [1]: BRL (BRL means below reporting limit (meaning less than 0.05% of tigecycline peak))
RRT 1.64 Mino [1]: 0.10%
RRT 1.67 MW = 556 [1]: BRL (BRL means below reporting limit (meaning less than 0.05% of tigecycline peak))
RRT 1.85 MW = 597 [1]: 0.09%
Strength [1]: 19.378 mg/mL
Total [1]: 0.54%
RRT 0.12 MW = 633 [2]: BRL (BRL means below reporting limit (meaning less than 0.05% of tigecycline peak))
RRT 0.23 MW = 572 [2]: BRL (BRL means below reporting limit (meaning less than 0.05% of tigecycline peak))
RRT 0.50 MW = 601 [2]: BRL (BRL means below reporting limit (meaning less than 0.05% of tigecycline peak))
RRT 0.55 MW = 583 [2]: BRL (BRL means below reporting limit (meaning less than 0.05% of tigecycline peak))
RRT 0.58 [2]: 0.07%
RRT 0.64 9-Amino [2]: BRL (BRL means below reporting limit (meaning less than 0.05% of tigecycline peak))
RRT 0.74 Epimer [2]: 0.22%
RRT 0.76 [2]: BRL (BRL means below reporting limit (meaning less than 0.05% of tigecycline peak))
RRT 0.78 MW = 557 [2]: BRL (BRL means below reporting limit (meaning less than 0.05% of tigecycline peak))
RRT 1.12 [2]: BRL (BRL means below reporting limit (meaning less than 0.05% of tigecycline peak))
RRT 1.45 [2]: 0.08%
RRT 1.58 [2]: BRL (BRL means below reporting limit (meaning less than 0.05% of tigecycline peak))
RRT 1.64 Mino [2]: 0.08%
RRT 1.67 MW = 556 [2]: BRL (BRL means below reporting limit (meaning less than 0.05% of tigecycline peak))
RRT 1.85 MW = 597 [2]: 0.08%
Strength [2]: 19.275 mg/mL
Total [2]: 0.53%
RRT 0.12 MW = 633 [3]: BRL (BRL means below reporting limit (meaning less than 0.05% of tigecycline peak))
RRT 0.23 MW = 572 [3]: BRL (BRL means below reporting limit (meaning less than 0.05% of tigecycline peak))
RRT 0.50 MW = 601 [3]: BRL (BRL means below reporting limit (meaning less than 0.05% of tigecycline peak))
RRT 0.55 MW = 583 [3]: 0.07%
RRT 0.58 [3]: 0.06%
RRT 0.64 9-Amino [3]: BRL (BRL means below reporting limit (meaning less than 0.05% of tigecycline peak))
RRT 0.74 Epimer [3]: 0.31%
RRT 0.76 [3]: BRL (BRL means below reporting limit (meaning less than 0.05% of tigecycline peak))
RRT 0.78 MW = 557 [3]: BRL (BRL means below reporting limit (meaning less than 0.05% of tigecycline peak))
RRT 1.12 [3]: BRL (BRL means below reporting limit (meaning less than 0.05% of tigecycline peak))
RRT 1.45 [3]: 0.08%
RRT 1.58 [3]: 0.05%
RRT 1.64 Mino [3]: 0.11%
RRT 1.67 MW = 556 [3]: 0.07%
RRT 1.85 MW = 597 [3]: 0.08%
Strength [3]: 19.382 mg/mL
Total [3]: 0.83%
RRT 0.12 MW = 633 [4]: BRL (BRL means below reporting limit (meaning less than 0.05% of tigecycline peak))
RRT 0.23 MW = 572 [4]: BRL (BRL means below reporting limit (meaning less than 0.05% of tigecycline peak))
RRT 0.50 MW = 601 [4]: BRL (BRL means below reporting limit (meaning less than 0.05% of tigecycline peak))
RRT 0.55 MW = 583 [4]: BRL (BRL means below reporting limit (meaning less than 0.05% of tigecycline peak))
RRT 0.58 [4]: 0.06%
RRT 0.64 9-Amino [4]: BRL (BRL means below reporting limit (meaning less than 0.05% of tigecycline peak))
RRT 0.74 Epimer [4]: 0.31%
RRT 0.76 [4]: BRL (BRL means below reporting limit (meaning less than 0.05% of tigecycline peak))
RRT 0.78 MW = 557 [4]: BRL (BRL means below reporting limit (meaning less than 0.05% of tigecycline peak))
RRT 1.12 [4]: BRL (BRL means below reporting limit (meaning less than 0.05% of tigecycline peak))
RRT 1.45 [4]: 0.10%
RRT 1.58 [4]: 0.05%
RRT 1.64 Mino [4]: 0.13%
RRT 1.67 MW = 556 [4]: 0.07%
RRT 1.85 MW = 597 [4]: 0.11%
Strength [4]: 19.211 mg/mL
Total [4]: 0.82%
RRT 0.74 Epimer [5]: 0.21%
RRT 1.85 MW = 597 [5]: 0.08%
Strength [5]: 18.777 mg/mL
RRT 0.58 [6]: 0.09%
RRT 0.74 Epimer [6]: 0.23%
Strength [6]: 18.971 mg/mL
Total [6]: 0.53%
RRT 1.45 [7]: 0.09%
RRT 1.64 Mino [7]: 0.06%
RRT 1.85 MW = 597 [7]: 0.09%
Strength [7]: 19.051 mg/mL
RRT 0.58 [8]: 0.07%
RRT 0.74 Epimer [8]: 0.24%
RRT 1.45 [8]: 0.07%
RRT 1.64 Mino [8]: 0.08%
RRT 1.85 MW = 597 [8]: 0.10%
Strength [8]: 18.722 mg/mL
Total [8]: 0.55%
RRT 0.74 Epimer [9]: 0.25%
RRT 1.64 Mino [9]: 0.11%
RRT 1.85 MW = 597 [9]: 0.06%
Strength [9]: 19.238 mg/mL
Total [9]: 0.56%
effect of pH on the degradation of tigecycline bulk solution (range of pH (7.7-8.2) studied): did not have any significant effect
degradation (when oxygen is removed from the process and the temperature is controlled): very little degradation is seen
